Vd and RatioAUC/MIC data for one compound are collected here from ChEMBL document CHEMBL1649492, “Population modeling and Monte Carlo simulation study of the pharmacokinetics and antituberculosis pharmacodynamics of rifampin in lungs” (Antimicrob Agents Chemother, 2009).

“And” between values parts separate entries of the source, which are not always exact repeats. Equal values may be shown once. Where only a bound is given, the exact number is not on record here.

The nature of data set [1]: Volume of distribution in epithelial lining fluid of patient with tuberculosis at […], po administered as single dose. It is filed as ADME, organism-based. More on the design: route oral. The following applies: human, in vivo.
The nature of data set [2]: Ratio of AUC (0 to 24 hrs) to MIC in plasma of patient with Mycobacterium tuberculosis infection at […], po administered as single dose. The data set is classed as functional.
Another data set concerns Homo sapiens. Nature of the data set: Volume of distribution in patient with tuberculosis at […], po administered as single dose. It is filed as ADME, organism-based. More on the design: route oral. The following applies: in vivo.
Data set [3] is described as follows: Volume of distribution in alveolar cells of patient with tuberculosis at […], po administered as single dose. The data set is classed as ADME, organism-based, Pneumocyte. More on the design: route oral. As to conditions: human, in vivo.
The nature of data set [4]: Ratio of AUC (0 to 24 hrs) to MIC in epithelial lining fluid of patient with Mycobacterium tuberculosis infection at […], po administered as single dose. The data set is classed as functional.

Turning to `CO[C@H]1/C=C/O[C@@]2(C)Oc3c(C)c(O)c4c(O)c(c(/C=N/N5CCN(C)CC5)c(O)c4c3C2=O)NC(=O)/C(C)=C\C=C\[C@H](C)[C@H](O)[C@@H](C)[C@@H](O)[C@@H](C)[C@H](OC(C)=O)[C@@H]1C` [RIFAMPIN], the Vd in data set [1] was 102.6 L and 102.8 L and 52.1 L; with Homo sapiens it was 11.56 L and 10.16 L and 8.05 L; in data set [3], 49.94 L and 43.66 L and 33.65 L. The figures for the RatioAUC/MIC entry in data set [2] and in data set [4] were “>=271” and “>=665”, respectively.
